Test results as given in ChEMBL document CHEMBL1201862, “PubChem BioAssay data set” (2004).
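48-hour exposure; five concentrations; linearly interpolated endpoints. GI50: concentration for 50% inhibition of growth.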 The source made the active and inactive calls. Cut-off read from the data, not from the text of the source: active = GI50 up to about 1.1 µM and inactive = higher.

Assays:
Assay in all cases: NCI-60 cell line screen, 48 h
[1] = system: SR
[2] = system: SK-MEL-5
[3] = system: UACC-257
[4] = system: OVCAR-5
[5] = system: A498
[6] = system: M14
[7] = system: SK-MEL-2
[8] = system: MCF7
[9] = system: COLO 205
[10] = system: K562
[11] = system: HL-60
[12] = system: HT-29
[13] = system: HOP-62
[14] = system: HCT-15
[15] = system: BT-549
[16] = system: RPMI-8226
[17] = system: OVCAR-8
[18] = system: PC-3
[19] = system: MDA-MB-435
[20] = system: MDA-N
[21] = system: OVCAR-4
[22] = system: SN12C
[23] = system: IGROV-1
[24] = system: TK-10
[25] = system: CAKI-1
[26] = system: SF-268
[27] = system: MDA-MB-231
[28] = system: CCRF-CEM
[29] = system: UACC-62
[30] = system: NCI-H460
[31] = system: HCC 2998
[32] = system: ACHN
[33] = system: HOP-92
[34] = system: RXF 393
[35] = system: SK-MEL-28
[36] = system: SNB-75
[37] = system: SNB-19
[38] = system: MOLT-4
[39] = system: KM12
[40] = system: OVCAR-3
[41] = system: DU-145
[42] = system: UO-31
[43] = system: SF-539
[44] = system: EKVX
[45] = system: SW-620
[46] = system: A549
[47] = system: NCI/ADR-RES
[48] = system: LOX IMVI
[49] = system: SF-295
[50] = system: Hs-578T
[51] = system: T47D
[52] = system: U-251
[53] = system: SK-OV-3
[54] = system: 786-0
[55] = system: HCT-116
[56] = system: NCI-H23
[57] = system: Malme-3M
[58] = system: NCI-H226
[59] = system: NCI-H522

## CN1c2ccc(Cl)cc2C(=O)NC1c1ccc([N+](=O)[O-])s1 (stereo unspecified)
[1]
  GI50: 14.6 µM (inactive)
[2]
  GI50: 16.1 µM (inactive)
[3]
  GI50: 15.1 µM (inactive)
[4]
  GI50: 20.2 µM (inactive)
[5]
  GI50: 14.8 µM (inactive)
[6]
  GI50: 15.6 µM (inactive)
[7]
  GI50: 16.4 µM (inactive)
[8]
  GI50: 19.6 µM (inactive)
[9]
  GI50: 21.5 µM (inactive)
[10]
  GI50: 13.3 µM (inactive)
[11]
  GI50: 19.6 µM (inactive)
[12]
  GI50: 18.9 µM (inactive)
[13]
  GI50: 18.5 µM (inactive)
[14]
  GI50: 12.7 µM
[15]
  GI50: 14.1 µM (inactive)
[16]
  GI50: 6.19 µM (inactive)
[17]
  GI50: 15.8 µM (inactive)
[18]
  GI50: 16 µM (inactive)
[19]
  GI50: 16.3 µM (inactive)
[20]
  GI50: 16.2 µM (inactive)
[21]
  GI50: 20.4 µM (inactive)
[22]
  GI50: 16.6 µM (inactive)
[23]
  GI50: 15.4 µM (inactive)
[24]
  GI50: 20.2 µM (inactive)
[25]
  GI50: 15.1 µM (inactive)
[26]
  GI50: 3.75 µM (inactive)
[27]
  GI50: 16.2 µM (inactive)
[28]
  GI50: 39.5 µM (inactive)
[29]
  GI50: 11.4 µM (inactive)
[30]
  GI50: 16.1 µM (inactive)
[31]
  GI50: 16.1 µM (inactive)
[32]
  GI50: 19.4 µM (inactive)
[33]
  GI50: 14.5 µM (inactive)
[34]
  GI50: 11.6 µM (inactive)
[35]
  GI50: 18.7 µM (inactive)
[36]
  GI50: 12 µM (inactive)
[37]
  GI50: 30.1 µM (inactive)
[38]
  GI50: 10.4 µM (inactive)
[39]
  GI50: 16.4 µM (inactive)
[40]
  GI50: 15.5 µM (inactive)
[41]
  GI50: 19.3 µM (inactive)
[42]
  GI50: 12.1 µM (inactive)
[43]
  GI50: 18.1 µM (inactive)
[44]
  GI50: 21.5 µM (inactive)
[45]
  GI50: 32.7 µM (inactive)
[46]
  GI50: 23.5 µM (inactive)
[47]
  GI50: 15.3 µM (inactive)
[48]
  GI50: 14.5 µM (inactive)
[49]
  GI50: 21.6 µM (inactive)
[50]
  GI50: 17.3 µM (inactive)
[51]
  GI50: 15 µM (inactive)
[52]
  GI50: 16.4 µM (inactive)
[53]
  GI50: 20.2 µM (inactive)
[54]
  GI50: 16.6 µM (inactive)
[55]
  GI50: 15.2 µM (inactive)

## COC(=O)C1=C(C(=O)OC)C2OC1C1C2C2(C)C(C)=C(C)C1(C)[S+]2[O-] (stereo unspecified)
[2]
  GI50: 7.62 µM (inactive)
[3]
  GI50: 12.4 µM (inactive)
[4]
  GI50: 15.5 µM (inactive)
[5]
  GI50: 27.5 µM (inactive)
[6]
  GI50: 8.59 µM (inactive)
[7]
  GI50: 10.8 µM (inactive)
[8]
  GI50: 6.28 µM (inactive)
[9]
  GI50: 6.43 µM (inactive)
[56]
  GI50: 6.93 µM (inactive)
[10]
  GI50: 4.9 µM (inactive)
[12]
  GI50: 6.47 µM (inactive)
[13]
  GI50: 20.2 µM (inactive)
[14]
  GI50: 4.18 µM
[15]
  GI50: 10.4 µM (inactive)
[16]
  GI50: 4.73 µM (inactive)
[17]
  GI50: 5.15 µM (inactive)
[18]
  GI50: 16.1 µM (inactive)
[19]
  GI50: 6.73 µM (inactive)
[20]
  GI50: 11.3 µM (inactive)
[21]
  GI50: 12.1 µM (inactive)
[22]
  GI50: 16.6 µM (inactive)
[23]
  GI50: 16.7 µM (inactive)
[24]
  GI50: 12.2 µM (inactive)
[25]
  GI50: 4.93 µM (inactive)
[26]
  GI50: 9.55 µM (inactive)
[27]
  GI50: 22.5 µM (inactive)
[29]
  GI50: 8.99 µM (inactive)
[30]
  GI50: 15.9 µM (inactive)
[31]
  GI50: 20.1 µM (inactive)
[32]
  GI50: 2.83 µM (inactive)
[33]
  GI50: 15.8 µM (inactive)
[34]
  GI50: 3.37 µM (inactive)
[35]
  GI50: 19.1 µM (inactive)
[36]
  GI50: 19.5 µM (inactive)
[37]
  GI50: 30.3 µM (inactive)
[38]
  GI50: 2.02 µM (inactive)
[39]
  GI50: 19 µM (inactive)
[40]
  GI50: 9.02 µM (inactive)
[41]
  GI50: 6.62 µM (inactive)
[42]
  GI50: 4.21 µM (inactive)
[57]
  GI50: 6.98 µM (inactive)
[58]
  GI50: 8.02 µM (inactive)
[43]
  GI50: 5.51 µM (inactive)
[44]
  GI50: 11.5 µM (inactive)
[45]
  GI50: 4.14 µM (inactive)
[46]
  GI50: 22.3 µM (inactive)
[47]
  GI50: 23.7 µM (inactive)
[48]
  GI50: 16.6 µM (inactive)
[49]
  GI50: 28.4 µM (inactive)
[50]
  GI50: 20.8 µM (inactive)
[51]
  GI50: 6.71 µM (inactive)
[59]
  GI50: 2.14 µM (inactive)
[52]
  GI50: 13.8 µM (inactive)
[53]
  GI50: 37.9 µM (inactive)
[54]
  GI50: 4.65 µM (inactive)
[55]
  GI50: 6.08 µM (inactive)
